Measured values: US20100035831A1, “ANTI-WRINKLE AGENT AND ADAM INHIBITOR” (SHISEIDO COMPANY, LTD., priority 2007, published 2010)

Tests used:
[1] = system: ADAM; experiment: Inhibition of PMA-induced TNF-α release from U937 cells as index of ADAM inhibition (ELISA); type: cell-based, human; details: tested substance 30 μg/mL, 30 min pretreatment, 10 nM PMA for 6 hours
Method: For ADAM inhibiting effect, the TNF-α which is cut out to be released from the membrane of the U937 cell derived from the human lymphoma through the action of the ADAM was used as an index and the inhibiting effect on the TNF-α release was assessed. A new ADAM inhibitor was explored by screening different compounds according to the present method.
The U937 cells derived from the human lymphoma were seeded to the 48-well plate adjusting the number of the cells to 1×10^5 cells/0.25 ml and cultured at 37° C. overnight. The medium which contained 30 μg/ml of alkyl glucoside was added and incubated at 37° C. for 30 min. to be pretreated. 10 nM PMA (phorbol ester:12-O-tetradecanoylphorbol-acetate; Sigma P8139) was then added and cultured at 37° C. for 6 hours. After completion of the treatment, the supernatant of the culture was collected, centrifuged and the cell-free supernatant was cryopreserved at −20° C. The assay of the released hTNF-α was performed using the hTNF-α Duo-Set ELISA kit from R & D Ltd. Each supernatant of the culture was diluted 5 folds with the medium, then 100 μl each was added to the 96-well plate and measured according to the protocol of R & D Ltd. The absorbance at 450-570 nm of each well was measured by the measurement kit and concentrations of the samples were obtained from the standard curve. The inhibition rates were calculated according to the following equation wherein A0 is the absorbance of 0% inhibiting control (the medium containing only PMA), A100 is the absorbance of 100% inhibiting control (only the medium) and AS is the absorbance of the sample.
The inhibition rate (%)=(A0−AS)/(A0−A100)×100

[2] = system: barrier-destructed wrinkle mouse model; experiment: Wrinkle score by visual judgement in the tape-stripping barrier-destructed wrinkle mouse model; type: in vivo, hairless mice (HR-1)
Method: Then, the wrinkle-ameliorating effects of dodecyl β-D-glucoside (GC12), tetradecyl β-D-glucoside (GC14), and hexadecyl β-D-glucoside (GC16) amongst the new ADAM-inhibiting compounds were examined using a barrier-destructed wrinkle mouse model.
(§1) The tape stripping was performed on the left back of the hairless mice (HR-1, 6 week old male, Hosino experimental animals) 3 times a week for 4 consecutive weeks so that the trans epithelial water loss (measured using a measuring device of water loss MEECO; Meeco Ltd, USA) was 4-8 mg/cm^2/h. Every time immediately after procedures of tape stripping, 100 μl each of the solutions of dodecyl β-D-glucoside, tetradecyl β-D-glucoside, and hexadecyl β-D-glucoside dissolved in the 50% ethanol aqueous solution so that they were 1% were applied on the left back of the mice, and as the negative control, a 50% ethanol aqueous solution (vehicle) were similarly applied. Number n was set as 6 to 7 for each group.
States of the wrinkle development after 4 weeks were scored by visual judgement. The assessment criteria of the wrinkle development state was set as “no wrinkle; 0”, “thin wrinkle; 1”, “clear wrinkle; 2”, “deep wrinkle; 3”, and the states were scored to the 0.5.
(§2) Using the similar method, the wrinkle-inhibiting effect of octadecyl β-D-glucoside (GC18) was also examined.

[3] = system: barrier-destructed wrinkle mouse model; experiment: Relative transepidermal water loss (TEWL) in the barrier-destructed wrinkle mouse model; type: in vivo, hairless mice (HR-1); details: for Relative TEWL (%), left (treated) side based on right (untreated) side: 1% in 50% ethanol, 4 weeks after starting, vehicle group 186% (FIG. 3)
Method: as §1
Further, the trans epithelial water loss (TEWL) at the backs of the mice before starting the test and at 4 weeks after starting was also examined. The TEWL values at the left backs on which dodecyl β-D-glucoside, tetradecyl β-D-glucoside, and hexadecyl β-D-glucoside or 50% ethanol aqueous solution (vehicle) were applied after tape stripping procedure as well as the values at the right backs on which nothing was applied were measured by the Vapometer (Technologies Ltd, Kuopio, Finland) two times, respectively. The ratio of the TEWL value for the left side based on the TEWL value of the right side for each individual (the relative TEWL (%)) was obtained and the average value for each group was calculated.
as §2

[4] = Water content of the horny (corneal) layer around the human eyes (Corneometer); type: in vivo; details: 0.44% in 30% ethanol, two months; vehicle group reduced to 95% of the value before start (FIG. 6)
Method: (§3) An aqueous solution of 0.44% dodecyl β-D-glucoside/30% ethanol was successively applied to 16 adult male humans in the 30-40th's (the average age of 42.2) for two months. The dosage was set as 30 μl per application. The solution of 0.44% dodecyl β-D-glucoside/30% ethanol was applied to the lateral angle of and under one eye and 30% ethanol aqueous solution as the vehicle was applied to those of the other eye two times a day.
(§4) To examine the state of the skin around the eyes before the application and after the application, it was acclimated in a steady temperature and humidity room (23.5° C., 45% humidity) after washing the face and then photo taking of the appearance around the eyes (Nikon digital single lens reflex camera D-100) and the water content measurement of the horny layer (Corneometer, Courage+Khazaka electronic GmbH, Germany) were performed before starting the test and after starting the successive application for two months.
The rate of the water content value of the corneal layer of the eye, when the value is 100, after successive application for two months based on the water content value of the horny layer of each subject before starting the test (relative water content of the horny layer (%)) was obtained to calculate the average value for each group.

[5] = system: fine wrinkles around the human eyes; experiment: Visual judgement of fine wrinkles under the human eye, half face double blind test; type: in vivo; details: 0.44% in 30% ethanol
Method: as §3, §4
Then, the visual appreciation judgement was performed by three judging persons.

[6] = 1% in 50% ethanol, 100 μl on left back after each tape stripping, 3 times a week, after 4 weeks, vehicle group 1.24 (FIG. 2)
[7] = 30 μl two times a day for two months, 16 adult males, versus vehicle-applied side

CCCCCCCCCCCCO[C@H]1O[C@H](CO)[C@@H](O)[C@H](O)[C@H]1O [Dodecyl α-D-glucoside]
Inhibition rate (%) of TNF-α release [1]: 91%

OC[C@H]1O[C@@H](OCCc2ccccc2)[C@H](O)[C@@H](O)[C@@H]1O [Glucoside compound (E), reference compound]
Inhibition rate (%) of TNF-α release [1]: −51.83%

CCCCCCCCCCCCCCCCCCO[C@@H]1O[C@H](CO)[C@@H](O)[C@H](O)[C@H]1O [Octadecyl β-D-glucoside]
Average wrinkle score by visual judgement (0 no wrinkle to 3 deep wrinkle) ([2]; similar method, vehicle group 1.55 (FIG. 4)): 0.54
Relative TEWL (%) ([3]; similar method, vehicle group 208% (FIG. 5)): 124%
Inhibition rate (%) of TNF-α release [1]: 62%

OC[C@H]1O[C@@H](OCc2ccccc2)[C@H](O)[C@@H](O)[C@@H]1O [Glucoside compound (B), reference compound]
Inhibition rate (%) of TNF-α release [1]: 3.4%

CCCCCCCCCCCCCCO[C@@H]1O[C@H](CO)[C@@H](O)[C@H](O)[C@H]1O [Tetradecyl β-D-glucoside]
Average wrinkle score by visual judgement (0 no wrinkle to 3 deep wrinkle) [2, 6]: 0.63
Relative TEWL (%), left (treated) side based on right (untreated) side [3]: 130%
Inhibition rate (%) of TNF-α release [1]: 109%

CCCCCCCCCCCCO[C@@H]1O[C@H](CO)[C@@H](O)[C@H](O)[C@H]1O [Dodecyl β-D-glucoside]
Relative water content of the horny layer (in words) [4]: reduction of the water content of the corneal layer was controlled
Average wrinkle score by visual judgement (0 no wrinkle to 3 deep wrinkle) [2, 6]: 0.58
Number of subjects Ameliorated [5, 7]: 10
Number of subjects Deteriorated [5, 7]: 2
Number of subjects Unchanged [5, 7]: 4
Effect on fine wrinkles under the eye (in words) ([5]; two months, human): significantly ameliorates the fine wrinkles under the eye
Relative TEWL (%), left (treated) side based on right (untreated) side [3]: 141%
Inhibition rate (%) of TNF-α release [1]: 88%

CCCCCCCCCCCCCCCCO[C@@H]1O[C@H](CO)[C@@H](O)[C@H](O)[C@H]1O [Hexadecyl β-D-glucoside]
Average wrinkle score by visual judgement (0 no wrinkle to 3 deep wrinkle) [2, 6]: 0.89
Relative TEWL (%), left (treated) side based on right (untreated) side [3]: 164%
Inhibition rate (%) of TNF-α release [1]: 76%

OC[C@H]1O[C@@H](Oc2c[nH]c3ccccc23)[C@H](O)[C@@H](O)[C@@H]1O [Glucoside compound (D), reference compound]
Inhibition rate (%) of TNF-α release [1]: −0.5%

OC[C@H]1O[C@@H](Oc2ccccc2)[C@H](O)[C@@H](O)[C@@H]1O [Glucoside compound (A), reference compound]
Inhibition rate (%) of TNF-α release [1]: 9.5%

OC[C@H]1O[C@@H](Oc2cccc3cccnc23)[C@H](O)[C@@H](O)[C@@H]1O [Glucoside compound (C), reference compound]
Inhibition rate (%) of TNF-α release [1]: 4.8%

CCCCCCCCCCO[C@@H]1O[C@H](CO)[C@@H](O)[C@H](O)[C@H]1O [Decyl β-D-glucoside]
Inhibition rate (%) of TNF-α release [1]: 56%

CCCCCCCCCCCO[C@@H]1O[C@H](CO)[C@@H](O)[C@H](O)[C@H]1O [Undecyl β-D-glucoside]
Inhibition rate (%) of TNF-α release [1]: 98%
